One assay deals with T1, Substance-K receptor (Rattus norvegicus, UniProt P16610).
T1 sequence (P16610 whole entry): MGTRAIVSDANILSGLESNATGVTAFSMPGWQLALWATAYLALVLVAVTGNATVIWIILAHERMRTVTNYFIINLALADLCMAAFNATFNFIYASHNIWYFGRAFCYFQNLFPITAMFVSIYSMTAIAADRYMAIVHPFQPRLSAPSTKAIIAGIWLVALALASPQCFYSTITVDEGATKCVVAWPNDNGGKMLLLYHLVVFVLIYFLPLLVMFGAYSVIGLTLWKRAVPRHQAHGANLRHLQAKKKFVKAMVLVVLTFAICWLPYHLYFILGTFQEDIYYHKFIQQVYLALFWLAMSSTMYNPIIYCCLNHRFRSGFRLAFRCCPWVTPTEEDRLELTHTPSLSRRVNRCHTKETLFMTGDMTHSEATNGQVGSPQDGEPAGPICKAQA
The experiment in a line: Binding affinity of compound was evaluated towards tachykinin receptor 2 by using radioligand ([125I]-NKA in rat duodenum.
Compound `CCn1c(/C=C/C=C2\N(C)c3ccccc3C2(C)C)[n+](CC)c2nc3ccccc3nc21` had an IC50 of 1700 nM.

The target in a further assay is Substance-P receptor (Rattus norvegicus, UniProt P14600). As to the kind of experiment: Binding affinity for tachykinin receptor 1 from rat forebrain tissue, [125I]-BH-SP as radioligand.
Substance-P receptor, sequence (P14600 whole entry): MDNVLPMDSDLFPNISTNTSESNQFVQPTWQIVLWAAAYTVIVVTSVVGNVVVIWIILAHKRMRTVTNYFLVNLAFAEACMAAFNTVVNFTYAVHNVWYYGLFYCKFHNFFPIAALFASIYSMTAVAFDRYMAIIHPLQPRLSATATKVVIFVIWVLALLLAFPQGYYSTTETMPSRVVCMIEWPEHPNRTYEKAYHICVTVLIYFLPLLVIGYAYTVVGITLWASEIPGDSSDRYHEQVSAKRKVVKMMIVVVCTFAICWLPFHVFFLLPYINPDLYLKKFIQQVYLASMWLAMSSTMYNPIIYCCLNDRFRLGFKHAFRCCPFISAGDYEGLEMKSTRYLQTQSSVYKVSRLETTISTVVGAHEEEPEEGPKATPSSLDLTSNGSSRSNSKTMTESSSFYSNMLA
`CCN1/C(=C/C=C/c2n(CC)c3nc4ccccc4nc3[n+]2CC)C(C)(C)c2ccccc21` showed an IC50 of 390 nM.
The same measure, in the same setting: then `CCn1c(/C=C/C=C2\Sc3ccccc3N2C)[n+](CC)c2nc3ccccc3nc21`, with 700 nM; and `CCn1c(/C=C/C=C/N2CCCC2)[n+](CC)c2nc3ccccc3nc21`, with greater than 10000 nM; and `CCn1c(/C=C/C=C2\C3C=CCc4cccc(c43)N2C)[n+](CC)c2nc3ccccc3nc21` (stereo not given), with 850 nM.
Still for that read-out and setting: then `CCn1c(/C=C/C=C2/N(C)c3ccccc3C2(C)C)[n+](CCCOC(C)=O)c2nc3ccccc3nc21`, with 410 nM.
As to `CCn1c(/C=C/C=C2/N(C)c3ccccc3C2(C)C)[n+](CCCO)c2nc3ccccc3nc21`, the IC50 turned out to be 350 nM.
The same measure, in the same setting: then `CCn1c(/C=C/C=C2/N(C)c3ccccc3C2(C)C)[n+](CCCN(C)C)c2nc3ccccc3nc21`, with 1300 nM; and `CCOC(=O)CCC[n+]1c(/C=C/C=C2/N(C)c3ccccc3C2(C)C)n(CC)c2nc3ccccc3nc21`, with 850 nM.
Same read-out and setting: then `CCn1c(/C=C/C=C2/N(C)c3ccccc3C2(C)C)[n+](CCCC(=O)O)c2nc3ccccc3nc21`, with 1400 nM; and `CCn1c(/C=C/C=C2/N(CC(=O)N(C)C)c3ccccc3C2(C)C)[n+](CC)c2nc3ccccc3nc21`, with 2600 nM.
Still for that read-out and setting: then `CCn1c(/C=C/C=C2/N(C)c3ccccc3C2(C)C)[n+](CC)c2nc3cc(Cl)c(Cl)cc3nc21`, with 1100 nM; and `CCn1c(/C=C/C=C2/N(C)c3ccccc3C2(C)C)[n+](CC(N)=O)c2nc3ccccc3nc21`, with 2000 nM; and `CCn1c(/C=C/C=C2/N(CCO)c3ccccc3C2(C)C)[n+](CC)c2nc3ccccc3nc21`, with 1000 nM.

In another assay the target is T2, Neuromedin-K receptor (Rattus norvegicus, UniProt P16177).
T2 sequence (P16177 whole entry): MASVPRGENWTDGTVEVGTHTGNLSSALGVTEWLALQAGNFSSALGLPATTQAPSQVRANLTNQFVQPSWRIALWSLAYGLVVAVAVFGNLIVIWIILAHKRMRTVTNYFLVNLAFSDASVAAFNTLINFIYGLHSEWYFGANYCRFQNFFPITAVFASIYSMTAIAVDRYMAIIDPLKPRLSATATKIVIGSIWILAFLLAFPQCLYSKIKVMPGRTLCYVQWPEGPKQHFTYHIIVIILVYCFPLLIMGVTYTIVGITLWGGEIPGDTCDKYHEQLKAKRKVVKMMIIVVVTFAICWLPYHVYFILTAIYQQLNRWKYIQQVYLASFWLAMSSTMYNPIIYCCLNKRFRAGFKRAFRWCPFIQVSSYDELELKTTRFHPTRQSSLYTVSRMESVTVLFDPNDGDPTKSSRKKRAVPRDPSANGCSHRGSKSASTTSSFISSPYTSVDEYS
The experiment in a line: Binding affinity of compound was evaluated towards tachykinin receptor 3 by using radioligand [[…]]eledoisin in rat cortex.
`CCn1c(/C=C/C=C2\N(C)c3ccccc3C2(C)C)[n+](CC)c2nc3ccccc3nc21` came in with an IC50 of 3300 nM.

One may read the IC50 as the concentration that gives 50% inhibition.

These data come from ChEMBL document CHEMBL1125705, “Imidazo[4,5-b]quinoxaline cyanines as neurokinin antagonists” (J Med Chem, 1991).
